Measured values: patent US9309229B2, “Crystalline forms of 5-chloro-N2-(2-isopropoxy-5-methyl-4-piperidin-4-yl-phenyl)-N4-[2-(propane-2-sulfonyl)-phenyl]-pyrimidine-2, 4-diamine” (Novartis AG, priority 2010, dated 2016)
≈ marks a conversion by molar mass, not a printed value.

Columns and labels:
Format in all cases: physicochemical
[1] = Solubility of crystalline form A
[2] = Hygroscopicity (moisture uptake at relative humidity)
[3] = Stability of the form in pH 1 (0.1N HCl) solution; conditions: pH 1 (0.1N HCl) solution over 72 hour
[4] = pH of 1% suspension in water

solubility ([1]; in water): 0.21 mg/mL (≈ 0.376 mM)
solubility ([1]; organic solvent or mixture, in methanol (organic solvent)): 40 mg/mL (≈ 71.7 mM)
solubility ([1]; pH 1 solution (0.1N HCl), simulated gastric fluid, in pH 1): 11 mg/mL (≈ 19.7 mM)
hygroscopicity ([2]; 84% relative humidity (RH)): relatively non-hygroscopic
moisture uptake ([2]; 93% RH): minor increase in moisture uptake
pH of 1% suspension in water [4]: 6.86
SMILES: Cc1cc(Nc2ncc(Cl)c(Nc3ccccc3S(=O)(=O)C(C)C)n2)c(OC(C)C)cc1C1CCNCC1 [Form A, 5-Chloro-N2-(2-isopropoxy-5-methyl-4-piperidin-4-yl-phenyl)-N4-[2-(propane-2-sulfonyl)-phenyl]-pyrimidine-2,4-diamine]
conversion of form in solution [3]: converted to a hydrochloride salt (non-stoichiometric)
